The record followed here is patent EP4810483A1, “6- AND 5-HETEROARYL DERIVATIVES AND USE THEREOF” (CMS Research & Development Pte. Ltd., priority 2023, dated 2025).

As usually defined, the bioavailability is the share of a dose that reaches the circulation, judged against a reference dose that is usually intravenous. In general, EC50 refers to the concentration giving half of the maximal effect.

Molecules are shown by their SMILES. Where two headings read alike, the source gives them in different places.

The nature of data set [1]: Pharmacokinetic evaluation in mice (IV and PO). It counts as in vivo. Conditions: mouse, plasma, CD-1 mice; for half-life: IV, read-out: Half-life T1/2 (IV) (converted); for AUC(0-t): PO, read-out: Area under the concentration-time curve AUC0-last PO; for bioavailability: read-out: Bioavailability F; for clearance: read-out: Clearance CL; for Cmax: read-out: Peak plasma concentration Cmax; for Vd: read-out: Volume of distribution Vdss. The procedure:
Test Method 2: Pharmacokinetic Evaluation in Mice
Assay method: Test compounds were mixed with 5% DMSO / 60% polyethylene glycol (PEG400) / 35% water, vortexed and sonicated to obtain a clear 0.2 mg/mL solution, which was then filtered through a microporous membrane before use. Male CD-1 mice weighing 25-35 g were selected. The candidate compound solution was administered intravenously at a dose of 1 mg/kg. The candidate compound solution was orally administered at a dose of 5 mg/kg after fasting. Blood samples (25 µL each) were collected at 0.083, 0.25, 0.5, 1, 2, 4, 8, 12 and 24 hours after administration, and placed into commercial anticoagulant tubes pre-containing EDTA-K2. The tubes were centrifuged for 10 minutes to separate plasma, which was then stored at -60°C. The content of the target compound in plasma samples was determined by LC/MS/MS method, and pharmacokinetic parameters were calculated using Phoenix WinNonlin software (Pharsight, USA).
Tlast: time of the last detection point. AUC0-last: (Area Under the Concentration-Time Curve) refers to the area enclosed by the plasma drug concentration curve and the time axis. F (Bioavailability) is a measure of the rate and extent to which a drug is absorbed into the systemic circulation, serving as a critical indicator for evaluating the degree of drug absorption. […]

The next data set addresses T1, hKCNQ2/3 (Homo sapiens, UniProt O43525+O43526).
T1 construct: expressed in transfected cells; host or cells: CHO
The data set is described as follows: cell-based. The text has this: Test Method 1: hKCNQ2/3 Thallium Flux Assay
Test Objective: To test the in vitro concentration-response relationship of compounds using FLIPR thallium flux assay in CHO cell lines stably expressing hKCNQ2/3.
According to the split ratio, the cells were transferred to another T-75 flask containing complete cell growth medium. Note: To maintain logarithmic growth, the cells should be kept in a subconfluent monolayer state. Based on the cell doubling time, the cells were passaged every 2-3 days.
• (1) Day 1 - Cell preparation: Cells were digested as described above, and cell density and viability were determined using a Cell Countess. The volume of the single-cell suspension was adjusted with complete cell growth medium. Then, hKCNQ2/3_CHO cells were seeded onto PDL-precoated 384-well plates at a density of approximately 20,000 cells/well (30 µL/well). The plates were then incubated overnight in a 37°C, 5% CO2 humidified air incubator. • (2) Day 2 - Compound preparation: Test compounds were diluted with dimethyl sulfoxide (DMSO) to stock concentrations and stored in a -20°C freezer. A compound addition program was set up on the ECHO liquid handler, and compounds were added to the plates using the ECHO liquid handler. Retigabine (RTG) was used as a positive control at a highest concentration of 100 µM with 3-fold serial dilutions for a total of 9 doses. Buffer containing 5 mM K^+ and 1 mM Tl^+ was added to the plates. Notes: 1) K2SO4 and Tl2SO4 were prepared in 1× chloride-free buffer. Depending on the voltage-gated potassium channel involved, the concentrations of Tl^+ and K^+ should be adjusted. Tl^+ concentration is approximately 0.5-5 mM, and K^+ concentration is approximately 5-30 mM. 2) Each 1 mM solution of K2SO4 and Tl2SO4 contains 2 mM K^+ and Tl^+; the final concentration should be calculated based on the ion concentration. 3) TlCl readily precipitates and a chloride-free buffer is required. • (3) Day 2 -Assay testing: Once the cells reached the desired confluence, the cell assay plates were removed from the incubator. Assay buffer and diluted Tl^+ dye (Molecular Devices # R8222) were prepared. The medium was discarded using a Bravo liquid handler, and 25 µL of Tl^+ dye was added to each well. After 1 hour of incubation, the cell assay plates, composite plates and FLIPR tips were placed in the FLIPR^TETRA (Molecular Devices, USA) for FLIPR detection. After setting up the tips, baseline readings were taken for 60 seconds, then 12.5 µL was added from the composite plate (3×) to the cell assay plate, and data were recorded for at least 5 minutes. • (4) Data processing: Maximum signals were generated by the FLIPR software. […] Data quality control: S/B > 2.00, Z factor > 0.50.
• (1) Day 1 - Cell preparation: Cells were digested as described above, and cell density and viability were determined using a Cell Countess. The volume of the single-cell suspension was adjusted with complete cell growth medium. Then, hKCNQ2/3_CHO cells were seeded onto PDL-precoated 384-well plates at a density of approximately 20,000 cells/well (30 µL/well). The plates were then incubated overnight in a 37°C, 5% CO2 humidified air incubator. • (2) Day 2 - Compound preparation: Test compounds were diluted with dimethyl sulfoxide (DMSO) to stock concentrations and stored in a -20°C freezer. A compound addition program was set up on the ECHO liquid handler, and compounds were added to the plates using the ECHO liquid handler. Retigabine (RTG) was used as a positive control at a highest concentration of 100 µM with 3-fold serial dilutions for a total of 9 doses. Buffer containing 5 mM K^+ and 1 mM Tl^+ was added to the plates. Notes: 1) K2SO4 and Tl2SO4 were prepared in 1× chloride-free buffer. Depending on the voltage-gated potassium channel involved, the concentrations of Tl^+ and K^+ should be adjusted. Tl^+ concentration is approximately 0.5 mM -5 mM, and K^+ concentration is approximately 5 mM -30 mM.

Data set [2] has as its system maximal electroshock-induced epilepsy model. Briefly: Maximal electroshock-induced epilepsy model, behavioral pharmacodynamics. The following applies: dose 5 mg/kg, oral, one hour before electrical stimulation; male CD-1 mice. Format: in vivo. An excerpt:
Assay Example 2: Evaluation of the behavioral pharmacodynamics of the test compounds in a maximal electroshock-induced epilepsy model
This study used behavioral tests in male CD-1 mice to investigate the effects of test compounds on acute epileptic seizures behavior induced by maximal electroshock.
Male CD-1 mice (25 to 35g) were used as the experimental animals and fed with standard feed (Beijing Vital River Laboratory Animal Technology Co., Ltd.).
After arriving at the animal facility, the experimental animals needed to acclimatize for at least one week. The mice were observed daily for vital signs, and randomly divided into groups according to their body weights one day before the drug administration. One hour before the electrical stimulation, different dosages of the test compound were orally administered to each group. On the day of the assay, the male CD-1 mice in each group were anesthetized locally at the cornea with 2% lidocaine. Then, silver bipolar electrodes were used to electrically stimulate the cornea of the mice with 18 mA, 60 Hz, a pulse width of 0.6 ms, and a stimulation time of 1 s to induce seizures. Subsequently, the latency of seizures and the duration of limb rigidity in mice after the electrical stimulation were observed, and the protection rate from seizures for each group was statistically analyzed.
Background: In the maximal electroshock model the usual endpoint is tonic extension of the hind limbs.

Where [3] appears, read: agonistic effect, CHO cells stably expressing hKCNQ2/3, FLIPR thallium flux, read-out: EC50.

T1 sequence (O43526 whole entry): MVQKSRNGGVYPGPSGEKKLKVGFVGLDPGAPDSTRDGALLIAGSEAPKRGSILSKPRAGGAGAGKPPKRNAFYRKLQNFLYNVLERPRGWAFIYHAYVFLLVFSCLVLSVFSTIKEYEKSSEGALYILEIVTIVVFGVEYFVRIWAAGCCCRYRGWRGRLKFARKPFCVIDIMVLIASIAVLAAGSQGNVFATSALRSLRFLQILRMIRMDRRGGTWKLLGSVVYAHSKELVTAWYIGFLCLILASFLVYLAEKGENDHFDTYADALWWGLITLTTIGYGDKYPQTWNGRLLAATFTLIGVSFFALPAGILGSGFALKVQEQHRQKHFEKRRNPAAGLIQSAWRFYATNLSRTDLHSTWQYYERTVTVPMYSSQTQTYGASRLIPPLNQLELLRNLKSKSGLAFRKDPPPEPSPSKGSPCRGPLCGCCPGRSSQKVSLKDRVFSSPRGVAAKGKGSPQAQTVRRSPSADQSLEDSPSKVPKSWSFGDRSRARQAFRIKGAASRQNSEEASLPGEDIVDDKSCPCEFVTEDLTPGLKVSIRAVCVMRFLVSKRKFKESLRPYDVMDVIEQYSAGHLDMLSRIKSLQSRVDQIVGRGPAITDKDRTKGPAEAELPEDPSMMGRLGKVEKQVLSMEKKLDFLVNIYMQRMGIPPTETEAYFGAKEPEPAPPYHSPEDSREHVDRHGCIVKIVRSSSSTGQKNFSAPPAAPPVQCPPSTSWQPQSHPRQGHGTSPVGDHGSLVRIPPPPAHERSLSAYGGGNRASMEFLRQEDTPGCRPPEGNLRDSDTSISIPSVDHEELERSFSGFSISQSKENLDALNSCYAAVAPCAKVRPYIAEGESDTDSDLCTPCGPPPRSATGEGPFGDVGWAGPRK
T1 sequence (O43525 whole entry): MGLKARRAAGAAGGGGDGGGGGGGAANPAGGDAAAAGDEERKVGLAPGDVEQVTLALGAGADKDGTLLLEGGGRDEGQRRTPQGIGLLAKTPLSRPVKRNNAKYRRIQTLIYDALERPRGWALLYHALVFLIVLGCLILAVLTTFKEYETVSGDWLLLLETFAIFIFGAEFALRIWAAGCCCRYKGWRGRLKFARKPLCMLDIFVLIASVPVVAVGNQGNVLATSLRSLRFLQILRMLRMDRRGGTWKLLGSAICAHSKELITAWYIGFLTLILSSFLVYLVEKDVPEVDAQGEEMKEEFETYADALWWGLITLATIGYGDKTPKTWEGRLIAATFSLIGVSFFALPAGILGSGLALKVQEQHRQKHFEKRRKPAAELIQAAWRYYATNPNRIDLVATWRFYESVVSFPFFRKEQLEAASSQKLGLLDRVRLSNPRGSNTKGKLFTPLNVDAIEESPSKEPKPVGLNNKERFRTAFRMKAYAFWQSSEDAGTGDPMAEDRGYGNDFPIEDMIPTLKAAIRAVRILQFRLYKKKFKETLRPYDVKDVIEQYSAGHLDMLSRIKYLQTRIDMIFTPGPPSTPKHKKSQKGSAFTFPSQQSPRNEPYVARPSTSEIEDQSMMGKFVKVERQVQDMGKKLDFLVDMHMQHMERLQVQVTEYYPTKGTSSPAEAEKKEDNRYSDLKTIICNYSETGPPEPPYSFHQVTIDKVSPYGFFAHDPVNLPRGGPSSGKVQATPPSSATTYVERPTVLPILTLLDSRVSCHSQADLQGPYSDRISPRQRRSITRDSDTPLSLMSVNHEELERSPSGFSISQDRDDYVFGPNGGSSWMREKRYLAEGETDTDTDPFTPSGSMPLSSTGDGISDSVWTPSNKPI

On to `CC(C)(C)CC(=O)Nc1nc2c(F)cc(Nc3ccc(F)cc3)cc2n1C1CCC1` [Compound 4], for which, in data set [1] (dose IV:0.5, PO:2 mg/kg), the half-life is 1.2 h, the AUC(0-t) was found to be 2.98 µM·h, the bioavailability was 64.2% and the clearance is 17.9 mL/min/kg. Also, in data set [1] (dose IV:0.5, PO:2 mg/kg), the Cmax stood at 548 nM and the Vd worked out at 2.14 L/kg.

Take `Cc1c(NC(=O)CC(C)(C)C)n(C)c2cc(Nc3ccc(F)cn3)ccc12` [Compound 11]: the EC50 at hKCNQ2/3 stood at 200 nM. In addition, in data set [1] (dose IV:0.5, PO:2 mg/kg), the half-life was 0.7 h, the AUC(0-t) was 1.11 µM·h, the bioavailability is 62.2% and the clearance was 50.3 mL/min/kg. Also, in data set [1] (dose IV:0.5, PO:2 mg/kg), the Cmax was 524 nM and the Vd came out at 2 L/kg.

Take `Cc1c(NC(=O)C2CC2)n(C)c2cc(Nc3ccc(F)cc3)ccc12` [Compound 13]: the EC50 at hKCNQ2/3 (setting [3]) is 500 nM.

Take `CCC(=O)Nc1c(C)c2ccc(Nc3ccc(F)cc3)cc2n1C` [Compound 16]: the EC50 on hKCNQ2/3 (setting [3]) amounted to 700 nM.

On to `Cc1c(NC(=O)C2CCCC2)n(C)c2cc(Nc3ccc(F)cn3)ccc12` [Compound 21], for which, on hKCNQ2/3 (setting [3]), the EC50 came out at 220 nM.

For `Cc1c(NC(=O)C2CCC2)n(C)c2cc(Nc3ccc(F)cn3)ccc12` [Compound 22], the EC50 on hKCNQ2/3 (setting [3]) came to 430 nM.

For `Cc1c(NC(=O)CC2(C)CC2)n(C)c2cc(Nc3ccc(F)cn3)ccc12` [Compound 28], on hKCNQ2/3 (setting [3]), the EC50 is 560 nM.

With `Cc1ccc(Nc2ccc3c(C)c(NC(=O)CC(C)(C)C)n(C)c3c2)nc1` [Compound 29], on hKCNQ2/3 (setting [3]), the EC50 is 410 nM.

For `Cc1c(NC(=O)CC(C)(C)C)n(C)c2cc(Nc3ccc(Cl)cn3)ccc12` [Compound 30], the EC50 on hKCNQ2/3 (setting [3]) came to 210 nM.

With `Cc1nc(Nc2ccc3c(C)c(NC(=O)CC4(C)CC4)n(C)c3c2)ccc1F` [Compound 36], the EC50 at hKCNQ2/3 is 220 nM. Besides, the “Seizure incidence (%)” value in data set [2] is on record as 0%. Further, in data set [1] (dose IV:1, PO:5 mg/kg), the half-life was 1.7 h, the AUC(0-t) was 29.5 µM·h, the bioavailability is 92.7% and the clearance turned out to be 6.9 mL/min/kg. Moreover, in data set [1] (dose IV:1, PO:5 mg/kg), the Cmax is 4750 nM and the Vd came out at 0.8 L/kg.

Regarding `Cc1c(NC(=O)CC(C)(C)C)n(C)c2cc(Nc3ncc(F)cn3)ccc12` [Compound 38], the 50% effective concentration (EC50) at hKCNQ2/3 (setting [3]) came to 820 nM.
